Measurements reported in patent US20240108617A1, “AN INHALABLE DRY POWDER COMPOSITION FOR PULMONARY DISEASES” (GLENMARK SPECIALTY S.A., priority 2019, published 2024).

Assays:
[1] = Particle size distribution, Malvern Mastersizer 2000S, wet dispersion; format: physicochemical; conditions: PSD retested results
Description: The particle size distribution studies were performed using Malvern Mastersizer 2000S using wet dispersion method. A sample of about […] of compound (I) was transferred in a beaker, and 2-3 drops of nonidet P-40 and 4-5 drops of water were added to the sample in beaker, and 25-30 ml of water was added and sonicated for 180 seconds with continuous stirring, and the dispersion/solution of compound (I) was added in sample handling unit of Hydro 20000S. The particle size measurement was done using Malvern Mastersizer 2000S.

[2] = Compatibility with inhalation grades of lactose monohydrate; format: physicochemical; conditions: Respitose ML006, Respitose SV010, Lactohale 201, Lactohale 200, Inhalac 230, Inhalac 70
Description: It was observed that compound (I) is compatible with different commercially available inhalation grades of lactose monohydrate including Respitose ML006, Respitose SV010, Lactohale 201, Lactohale 200, Inhalac 230, Inhalac 70. Lactose Monohydrate is selected as a diluent for compound (I) (micronized) with the particle size d90 of ≤5 microns.

IL-17 [3] = assay: Ex-vivo IL-17 inhibition from peripheral blood (whole blood) from COPD patients; format: cell-based; conditions: Homo sapiens
Description: • 1. ˜8 mL whole blood was collected per patient. • 2. Human whole blood was diluted 1:1 with 0.85% NaCl. • 3. Diluted blood was loaded on a 96 well plate. Blood was pre-incubated for 60 minutes at 37° C. with serial dilutions of Compound (I). • 4. It was then transferred to 96 well plate coated with Anti-human CD3 antibody (final concentration—10 μg/mL). This was followed by the addition of Anti-human CD28 antibody (2 μg/mL). • 5. Cells were incubated for 48 h in the incubator at 37° C. with 5% CO2. The plates were spun at 1200 rpm at 4° C. for 12 minutes, supernatant collected and used for IL17 estimation by ELISA.
(§1) Calculations: IL17 cytokine concentration in the supernatant was determined using linear regression from the standard graph and subsequently multiplied with respective dilution factors. Fold response (FR) was calculated as pg/ml of hIL17 in sample (treated) wells over pg/ml of hIL17 in Basal wells.
Percent Inhibition for each set treated with test compound was calculated by using the formula
Percent Inhibition={100−(pg/mL of test compound/pg/mL of induced×100)}
IC50 values were calculated from concentration response curves by nonlinear regression analysis using GraphPad Prism software.

IL-17 [4] = assay: Ex-vivo IL-17 inhibition from bronchoalveolar lavage (BAL) cells from COPD patients; format: cell-based, human; conditions: for IC50: stimulated BAL cells from COPD patients, read-out: IC50, IL-17 release
Description: The test compound was prepared by 10 mM stock of Compound (I) was prepared in 100% DMSO. The saline was prepared by 0.85 gm of NaCl weighted and dissolved in 100 mL distilled water and adjusted the pH 7.0 to pH 7.4. It was then filter sterilized.
Flexible fiber optic bronchoscopy was performed after valid consent and lignocaine nebulization. Patient was given 2 mg of IV midazolam and monitored under pulse oximetry and cardiac monitor. BAL fluid was collected with repeated aspirations of saline preferably from middle lobe.
BALF was passed through cell strainer to remove debris and mucus. BAL cells were isolated from BALf by centrifugation at 800 rpm for 10 min.
BAL cells were seeded at a density of 1×10^5 cells-2×10^5 cells/well in a 96 well plate coated with Anti-human CD3 antibody (10 μg/mL) and anti-human CD2 antibody (2 μg/mL). The plate was shaken gently and cells incubated for 5-10 minutes in an incubator with 37° C. and 5% CO2 to acclimatize. • 1. Cells were pre-incubated for 60 minutes at 37° C. with serial dilutions of Compound (I). This was followed by the addition of Anti-human CD28 antibody (2 μg/mL). • 2. Cells were incubated for 48-72 h in the incubator at 37° C. with 5% CO2. • 3. The plates were spun at 1200 rpm at 4° C. for 12 minutes, supernatant collected and used for IL17 estimation by ELISA.
as §1
Percent Inhibition for each set treated with test compound was calculated by using the formula Percent Inhibition={100−(pg/mL of test compound/pg/mL of induced×100)} and IC50 values were calculated from concentration response curves by nonlinear regression analysis using GraphPad Prism software.

[5] = particle size data during intermediate development, listed as F
[6] = particle size data during initial development, listed as C
[7] = particle size data during intermediate development, listed as E
[8] = particle size data during intermediate development, listed as D
[9] = particle size data during initial development, listed as B
[10] = particle size data during initial development, listed as A

CCc1ccccc1-c1nccnc1-c1ccc(NC(=O)Cc2ccc(C(F)(F)[C@@H](C)O)cc2)cc1 [API Batch F]
d10 [1, 5]: 1.244 microns | d50 [1, 5]: 2.383 microns | d90 [1, 5]: 4.752 microns

CCc1ccccc1-c1nccnc1-c1ccc(NC(=O)Cc2ccc(C(F)(F)[C@@H](C)O)cc2)cc1 [API Batch C]
d10 [1, 6]: 1.128 μm | d50 [1, 6]: 2.010 μm | d90 [1, 6]: 3.783 μm

CCc1ccccc1-c1nccnc1-c1ccc(NC(=O)Cc2ccc(C(F)(F)C(C)O)cc2)cc1 (stereo in doubt) [Compound (I), 2-{4-[(2S)-1,1-difluoro-2-hydroxypropyl]phenyl}-N-{4-[3-(2-ethylphenyl)pyrazine-2-yl]phenyl}acetamide]
compatibility with commercially available inhalation grades of lactose monohydrate [2]: compatible | inhibition at 0.0001 µM (IL-17 [3]; Whole Blood, 0.1 nM, read-out: IL17 A (% Inhibition)): 0.27% | inhibition at 0.001 µM (IL-17 [3]; Whole Blood, 1 nM, read-out: IL17 A (% Inhibition)): 5.57% | inhibition at 0.003 µM (IL-17 [3]; Whole Blood, 3 nM, read-out: IL17 A (% Inhibition)): 14.9% | inhibition at 0.01 µM (IL-17 [3]; Whole Blood, 10 nM, read-out: IL17 A (% Inhibition)): 15.1% | inhibition at 0.03 µM (IL-17 [3]; Whole Blood, 30 nM, read-out: IL17 A (% Inhibition)): 27.6% | inhibition at 0.1 µM (IL-17 [3]; Whole Blood, 100 nM, read-out: IL17 A (% Inhibition)): 36.8% | inhibition at 0.3 µM (IL-17 [3]; Whole Blood, 300 nM, read-out: IL17 A (% Inhibition)): 43.4% | inhibition at 1 µM (IL-17 [3]; Whole Blood, 1 uM, read-out: IL17 A (% Inhibition)): 56.9% | inhibition at 3 µM (IL-17 [3]; Whole Blood, 3 μM, read-out: IL17 A (% Inhibition)): 65% | inhibition at 6 µM (IL-17 [3]; Whole Blood, 6 μM, read-out: IL17 A (% Inhibition)): 69.2% | inhibition at 10 µM (IL-17 [3]; Whole Blood, 10 μM, read-out: IL17 A (% Inhibition)): 76.2% | inhibition at 20 µM (IL-17 [3]; Whole Blood, 20 μM, read-out: IL17 A (% Inhibition)): 78.8% | IC50 (IL-17 [3]; stimulated whole blood from COPD patients, read-out: IC50, IL17 release): 282 nM | inhibition of IL17 release (IL-17 [4]; BAL cells, at an ICmax concentration of 1-3 microns): > 70% | IC50 (IL-17 [4]; Homo sapiens): 143 nM | inhibition at 0.0001 µM (IL-17 [4]; Homo sapiens, COPD-BAL cells, 0.1 nM): 4.97% | inhibition at 0.001 µM (IL-17 [4]; Homo sapiens, COPD-BAL cells, 1 nM): 2.39% | inhibition at 0.003 µM (IL-17 [4]; Homo sapiens, COPD-BAL cells, 3 nM): 10.9% | inhibition at 0.01 µM (IL-17 [4]; Homo sapiens, COPD-BAL cells, 10 nM): 13.9% | inhibition at 0.03 µM (IL-17 [4]; Homo sapiens, COPD-BAL cells, 30 nM): 18.7% | inhibition at 0.1 µM (IL-17 [4]; Homo sapiens, COPD-BAL cells, 100 nM): 41.4% | inhibition at 0.3 µM (IL-17 [4]; Homo sapiens, COPD-BAL cells, 300 nM): 66.8% | inhibition at 1 µM (IL-17 [4]; Homo sapiens, COPD-BAL cells, 1 μM): 71.1% | inhibition at 3 µM (IL-17 [4]; Homo sapiens, COPD-BAL cells, 3 μM): 76.7% | inhibition at 6 µM (IL-17 [4]; Homo sapiens, COPD-BAL cells, 6 μM): 78.8% | inhibition at 10 µM (IL-17 [4]; Homo sapiens, COPD-BAL cells, 10 μM): 81.1% | IC50 (IL-17 [4]): 143 nM

CCc1ccccc1-c1nccnc1-c1ccc(NC(=O)Cc2ccc(C(F)(F)[C@@H](C)O)cc2)cc1 [API Batch E]
d10 [1, 7]: 1.376 microns | d50 [1, 7]: 2.591 microns | d90 [1, 7]: 5.060 microns

CCc1ccccc1-c1nccnc1-c1ccc(NC(=O)Cc2ccc(C(F)(F)[C@@H](C)O)cc2)cc1 [API Batch D]
d10 [1, 8]: 0.110 microns | d50 [1, 8]: 1.510 microns | d90 [1, 8]: 3.638 microns

CCc1ccccc1-c1nccnc1-c1ccc(NC(=O)Cc2ccc(C(F)(F)[C@@H](C)O)cc2)cc1 [API Batch B]
d10 [1, 9]: 0.106 μm | d50 [1, 9]: 1.376 μm | d90 [1, 9]: 3.278 μm

CCc1ccccc1-c1nccnc1-c1ccc(NC(=O)Cc2ccc(C(F)(F)[C@@H](C)O)cc2)cc1 [API Batch A]
d10 [1, 10]: 1.222 μm | d50 [1, 10]: 2.064 μm | d90 [1, 10]: 3.664 μm
